According to PubChem BioAssay AID1963870 (Molecular Pharmacology Branch, DTP, NCI, 2024):

System: 292921-168-R-J2-PDC KRAS tumor spheroid viability
Experiment: Anticancer human tumor 292921-168-R-J2-PDC patient-derived pancreatic carcinoma cell line growth inhibition [KRAS2]
Settings: spheroids with HUVEC and MSC; for viability, T/C: stronger effect = lower value; active means viability on the fitted dose curve at most 10% of control; inactive means the rest
In short: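 KRAS-mutant tumor cells were grown as spheroids with HUVEC endothelial cells and human MSCs as stroma. Targeted agents were tested alone and with KRAS pathway inhibitors. Doses started at or near clinical Cmax, or 10 microM, descending half-log.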

[1] = curve of first compound, second compound 0.1 µM
[2] = curve of first compound, second compound 0.316 µM
[3] = curve of first compound, second compound 1 µM
[4] = curve of first compound, second compound 3.16 µM
[5] = second compound 0.1 µM, first compound 0.000316 µM
[6] = second compound 0.1 µM, first compound 0.001 µM
[7] = second compound 0.1 µM, first compound 0.00316 µM
[8] = second compound 0.1 µM, first compound 0.01 µM
[9] = second compound 0.1 µM, first compound 0.0316 µM
[10] = second compound 0.316 µM, first compound 0.000316 µM
[11] = second compound 0.316 µM, first compound 0.001 µM
[12] = second compound 0.316 µM, first compound 0.00316 µM
[13] = second compound 0.316 µM, first compound 0.01 µM
[14] = second compound 0.316 µM, first compound 0.0316 µM
[15] = second compound 1 µM, first compound 0.000316 µM
[16] = second compound 1 µM, first compound 0.001 µM
[17] = second compound 1 µM, first compound 0.00316 µM
[18] = second compound 1 µM, first compound 0.01 µM
[19] = second compound 1 µM, first compound 0.0316 µM
[20] = second compound 3.16 µM, first compound 0.000316 µM
[21] = second compound 3.16 µM, first compound 0.001 µM
[22] = second compound 3.16 µM, first compound 0.00316 µM
[23] = second compound 3.16 µM, first compound 0.01 µM
[24] = second compound 3.16 µM, first compound 0.0316 µM
[25] = curve of first compound, second compound 10 µM
[26] = second compound 0.1 µM, first compound 0.1 µM
[27] = second compound 0.1 µM, first compound 0.316 µM
[28] = second compound 0.1 µM, first compound 1 µM
[29] = second compound 0.316 µM, first compound 0.1 µM
[30] = second compound 0.316 µM, first compound 0.316 µM
[31] = second compound 0.316 µM, first compound 1 µM
[32] = second compound 1 µM, first compound 0.1 µM
[33] = second compound 1 µM, first compound 0.316 µM
[34] = second compound 1 µM, first compound 1 µM
[35] = second compound 3.16 µM, first compound 0.1 µM
[36] = second compound 3.16 µM, first compound 0.316 µM
[37] = second compound 3.16 µM, first compound 1 µM
[38] = second compound 10 µM, first compound 0.0316 µM
[39] = second compound 10 µM, first compound 0.1 µM
[40] = second compound 10 µM, first compound 0.316 µM
[41] = second compound 10 µM, first compound 1 µM
[42] = second compound 10 µM, first compound 0.00316 µM
[43] = second compound 10 µM, first compound 0.01 µM
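Further: drug exposure lasted seven days after spheroids formed for three days.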
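Wherever viability, T/C is given: percent of DMSO vehicle control viability which is 100%.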

CC(=O)Nc1cccc(-n2c(=O)n(C3CC3)c(=O)c3c(Nc4ccc(I)cc4F)n(C)c(=O)c(C)c32)c1 + C=CC(=O)N1CCN(c2nc(OCC3CCCN3C)nc3c2CCN(c2cccc4cccc(C)c24)C3)CC1CC#N
0.238 nM: IC50 [1]
0.145 nM: IC50 [2]
0.281 nM: IC50 (curve of first compound, second compound 0.0316 µM)
inactive: viability, T/C (second compound 0.0316 µM, first compound 0.0001 µM) 78.2% | viability, T/C (second compound 0.0316 µM, first compound 0.000316 µM) 46.6% | viability, T/C (second compound 0.0316 µM, first compound 0.001 µM) 27.2% | viability, T/C (second compound 0.0316 µM, first compound 0.00316 µM) 18.6% | viability, T/C (second compound 0.0316 µM, first compound 0.01 µM) 11.9% | viability, T/C (second compound 0.1 µM, first compound 0.0001 µM) 63.3% | viability, T/C [5] 45.9% | viability, T/C [6] 29.1% | viability, T/C [7] 17.6% | viability, T/C [8] 12.4% | viability, T/C (second compound 0.316 µM, first compound 0.0001 µM) 56.5% | viability, T/C [10] 36.5% | viability, T/C [11] 23% | viability, T/C [12] 13.5% | viability, T/C (second compound 1 µM, first compound 0.0001 µM) 42.7% | viability, T/C [15] 21.9% | viability, T/C [16] 13.3%
active: viability, T/C (second compound 0.0316 µM, first compound 0.0316 µM) 8.52% | viability, T/C [9] 7.9% | viability, T/C [13] 10.3% | viability, T/C [14] 7.06% | viability, T/C [17] 9.17% | viability, T/C [18] 6.87% | viability, T/C [19] 5.25% | viability, T/C (second compound 3.16 µM, first compound 0.0001 µM) 0.18% | viability, T/C [20] 0.2% | viability, T/C [21] 0.11% | viability, T/C [22] 0.27% | viability, T/C [23] 0.11% | viability, T/C [24] 0.17%
< 0.1 nM: IC50 [3] | IC50 [4]

CC1OCC2(CCN(c3cnc(Sc4ccnc(N)c4Cl)c(N)n3)CC2)C1N (configuration not stated) + C=CC(=O)N1CCN(c2nc(=O)n(-c3c(C)ccnc3C(C)C)c3nc(-c4c(O)cccc4F)c(F)cc23)C(C)C1
2060 nM: IC50 [3]
inactive: viability, T/C [9] 96.8% | viability, T/C [26] 83.1% | viability, T/C [27] 64.5% | viability, T/C [28] 51% | viability, T/C (second compound 0.1 µM, first compound 3.16 µM) 42% | viability, T/C (second compound 0.1 µM, first compound 10 µM) 33.4% | viability, T/C [14] 108% | viability, T/C [29] 82.5% | viability, T/C [30] 69.2% | viability, T/C [31] 59.9% | viability, T/C (second compound 0.316 µM, first compound 3.16 µM) 45.6% | viability, T/C (second compound 0.316 µM, first compound 10 µM) 34.2% | viability, T/C [19] 104% | viability, T/C [32] 89.9% | viability, T/C [33] 73.5% | viability, T/C [34] 55.5% | viability, T/C (second compound 1 µM, first compound 3.16 µM) 46.6% | viability, T/C (second compound 1 µM, first compound 10 µM) 41.1% | viability, T/C [24] 65.2% | viability, T/C [35] 57.6% | viability, T/C [36] 45.9% | viability, T/C [37] 39% | viability, T/C (second compound 3.16 µM, first compound 3.16 µM) 36.7% | viability, T/C (second compound 3.16 µM, first compound 10 µM) 29.6% | viability, T/C [38] 17.8% | viability, T/C [39] 15.9% | viability, T/C [40] 16.3% | viability, T/C [41] 15.5% | viability, T/C (second compound 10 µM, first compound 3.16 µM) 15.1% | viability, T/C (second compound 10 µM, first compound 10 µM) 14.4%
< 31.6 nM: IC50 [25]
1140 nM: IC50 [1]
1920 nM: IC50 [2]
218 nM: IC50 [4]

C=CC(=O)N1CCN(c2nc(=O)n(-c3c(C)ccnc3C(C)C)c3nc(-c4c(O)cccc4F)c(F)cc23)C(C)C1 (configuration not stated)
5.47 µM [middle of 6 runs]: IC50 (compound alone, run of 09/02/2021)
5.55 µM [middle of 5 runs]: IC50 (compound alone, run of 08/26/2021)

Cn1ncnc1[C@H]1c2n[nH]c(=O)c3cc(F)cc(c23)N[C@@H]1c1ccc(F)cc1 + CC1OCC2(CCN(c3cnc(Sc4ccnc(N)c4Cl)c(N)n3)CC2)C1N
0.634 nM: IC50 [3]
inactive: viability, T/C [5] 84.8% | viability, T/C [6] 78.6% | viability, T/C [7] 82.5% | viability, T/C [8] 76.4% | viability, T/C [9] 66.3% | viability, T/C [26] 58.2% | viability, T/C [10] 66.1% | viability, T/C [11] 60.9% | viability, T/C [12] 65% | viability, T/C [13] 56% | viability, T/C [14] 59.4% | viability, T/C [29] 51.9% | viability, T/C [15] 48.7% | viability, T/C [16] 51.7% | viability, T/C [17] 49.2% | viability, T/C [18] 44.4% | viability, T/C [19] 39.2% | viability, T/C [32] 39.1% | viability, T/C [20] 40.8% | viability, T/C [21] 39% | viability, T/C [22] 37.4% | viability, T/C [23] 36.2% | viability, T/C [24] 33.4% | viability, T/C [35] 30.8% | viability, T/C (second compound 10 µM, first compound 0.000316 µM) 34.5% | viability, T/C (second compound 10 µM, first compound 0.001 µM) 34.5% | viability, T/C [42] 32% | viability, T/C [43] 30.6% | viability, T/C [38] 29.5% | viability, T/C [39] 26.5%
< 0.316 nM: IC50 [4] | IC50 [25]
> 100 nM: IC50 [1] | IC50 [2]

CCN1CCN(Cc2ccc(Nc3ncc(F)c(-c4cc(F)c5nc(C)n(C(C)C)c5c4)n3)nc2)CC1 + COc1cc2nc(C)nc(NC(C)c3cc(N)cc(C(F)(F)F)c3)c2cc1OC1CCOC1
active: viability, T/C [40] 12.2% | viability, T/C [41] 0.58%
3.28 nM: IC50 [4]
13.2 nM: IC50 [2]
20.7 nM: IC50 [1]
inactive: viability, T/C [7] 74.7% | viability, T/C [8] 60.1% | viability, T/C [9] 42.2% | viability, T/C [26] 36% | viability, T/C [27] 29.8% | viability, T/C [28] 22.2% | viability, T/C [12] 67.4% | viability, T/C [13] 54.1% | viability, T/C [14] 39.2% | viability, T/C [29] 32.8% | viability, T/C [30] 28.4% | viability, T/C [31] 22.1% | viability, T/C [17] 60.7% | viability, T/C [18] 49.7% | viability, T/C [19] 40.3% | viability, T/C [32] 30.8% | viability, T/C [33] 25.7% | viability, T/C [34] 21.3% | viability, T/C [22] 51% | viability, T/C [23] 35.6% | viability, T/C [24] 30.8% | viability, T/C [35] 22.9% | viability, T/C [36] 22% | viability, T/C [37] 18.6% | viability, T/C [42] 22.8% | viability, T/C [43] 15.9% | viability, T/C [38] 14.7% | viability, T/C [39] 14.8%
9.76 nM: IC50 [3]
< 3.16 nM: IC50 [25]
